The source of these data is PMC7456963, “HPLC-Based Activity Profiling for Antiprotozoal Compounds in Croton gratissimus and Cuscuta hyalina” (Frontiers in Pharmacology, 2020).

In general, IC50 refers to the point on the concentration scale where inhibition reaches its midpoint.

Holding throughout (type): cell-based
For series [1], the system named is L. donovani strain MHOM/ET/67/L82 axenic amastigotes. Put plainly: Activity against Leishmania donovani axenic amastigotes (resazurin). Particulars: for Selectivity index (SI): IC50 in L6 cells divided by IC50 in L. donovani axenic amastigotes: L6 cells vs axenic L. donovani; for IC50: MHOM/ET/67/L82, pH 5.4, 70 h + 2 h resazurin, mean ± absolute deviation, at least two replicates, read-out: IC50 L. donovani Axenic. The protocol:
Amastigotes of L. donovani strain MHOM/ET/67/L82 were grown under an atmosphere of 5% CO2 in air in axenic culture at 37°C in SM medium ([Cunningham, 1977]) at pH 5.4 supplemented with 10% heat-inactivated fetal bovine serum. 50 µL of culture medium was added in the wells of a 96-well plate and serial drug dilutions of eleven three-fold dilution steps covering a final range from 100 to 0.002 μg/ml were prepared. 50 µL culture medium with 2 × 10^5 amastigotes from axenic culture were added to each well. After 70 h of incubation the plates were inspected under an inverted microscope to assure growth of the controls and sterile conditions. 10 μl of resazurin (12.5 mg resazurin dissolved in 100 ml distilled water) were added to each well and the plates incubated for another 2 h. Then the plates were read with a Spectramax Gemini XS microplate fluorometer (Molecular Devices Cooperation, Sunnyvale, CA, USA) using an excitation wavelength of 536 nm and an emission wavelength of 588 nm. Data were analyzed using the software Softmax Pro (Molecular Devices Cooperation, Sunnyvale, CA, USA). Decrease of fluorescence (= inhibition) was expressed as percentage of the fluorescence of untreated control cultures and plotted against the drug concentrations. From the sigmoidal inhibition curves the IC50 values were calculated. Miltefosine was used as positive control drug. Assays were performed in two independent replicates at least.
For orientation: Alamar Blue is a resazurin reagent that responds to reducing activity.

The test system of series [2] is T. b. rhodesiense STIB 900 bloodstream forms. Put plainly: Activity against Trypanosoma brucei rhodesiense STIB900 (resazurin). Particulars: for Selectivity index (SI): IC50 in L6 cells divided by IC50 in T. b. rhodesiense: L6 cells vs T. b. rhodesiense STIB 900; for IC50: STIB 900 bloodstream forms, 70 h + resazurin, mean ± absolute deviation. The protocol: The stock was originally isolated from a patient and adapted to axenic culture conditions after several mouse passages and cloned. Minimum Essential Medium (50 µl) supplemented with 25 mM HEPES, 1 g/L additional glucose, 1% MEM non-essential amino acids (100×), 0.2 mM 2-mercaptoethanol, 1 mM Na-pyruvate ([Baltz et al., 1985]) and 15% heat inactivated horse serum was added to each well of a 96-well microtiter plate. Serial drug dilutions of eleven 3-fold dilution steps covering a range from 100 to 0.002 μg/ml were prepared. Then 4 × 10^3 bloodstream forms of T. b. rhodesiense STIB 900 in 50 µL were added to each well and the plate incubated for 70 h at 37°C and under a 5% CO2 atmosphere. 10 µL resazurin solution (resazurin, 12.5 mg in 100 ml double-distilled water) was then added to each well and incubation continued for a further 2–4 h ([Räz et al., 1997]). Plates were read with a Spectramax Gemini XS microplate fluorometer (Molecular Devices Cooperation, Sunnyvale, CA, USA) using an excitation wavelength of 536 nm and an emission wavelength of 588 nm. […] Melarsoprol (Arsobal Sanofi-Aventis, received from WHO) was used as control. Assays were performed in two independent replicates at least.

Series [3] deals with P. falciparum NF54 erythrocytic stages. Put plainly: Activity against Plasmodium falciparum (3H-hypoxanthine incorporation). Particulars: for IC50: read-out: IC50 P. falciparum; for Selectivity index (SI): IC50 in L6 cells divided by IC50 in P. falciparum: L6 cells vs P. falciparum NF54. The procedure:
In vitro activity against the erythrocytic stages of P. falciparum was determined using a ^3H-hypoxanthine incorporation assay ([Desjardins et al., 1979]), using the drug sensitive NF54 strain ([Ponnudurai et al., 1981]). Compounds were dissolved in DMSO at 10 mg/ml and further diluted in medium before addition to parasite cultures incubated in RPMI 1640 medium without hypoxanthine, supplemented with HEPES (5.94 g/L), NaHCO3 (2.1 g/L), neomycin (100 U/ml), Albumax^R (5 g/L), and washed human red cells A^+ at 2.5% haematocrit (0.3% parasitemia). Serial drug dilutions of 11 three-fold dilution steps covering a range from 100 to 0.002 μg/ml were prepared. The 96-well plates were incubated in a humidified atmosphere at 37°C; 4% CO2, 3% O2, 93% N2. After 48 h, 50 μl of ^3H-hypoxanthine (=0.5 μCi) was added to each well of the plate. The plates were incubated for a further 24 h under the same conditions. The plates were then harvested with a Betaplate™ cell harvester (Wallac, Zurich, Switzerland), the red blood cells transferred onto a glass fibre filter, and lysed with distilled water. The dried filters were inserted into a plastic foil with 10 ml of scintillation fluid and counted in a Betaplate™ liquid scintillation counter (Wallac, Zurich, Switzerland). IC50 values were calculated from sigmoidal inhibition curves by linear regression using Microsoft Excel. Chloroquine (Sigma C6628) was used as control. Assays were performed in two independent replicates at least.

The subject of series [4] is L. donovani amastigotes in mouse peritoneal macrophages. The experiment in a line: Activity against Leishmania donovani intramacrophage amastigotes (high-content imaging). Conditions: amastigotes in mouse peritoneal macrophages, 96 h, read-out: IC50 L. donovani Intramacrophage. The protocol:
(§1) Macrophages were isolated from the mouse (CDI) peritoneal cavity ([Zhang et al., 2008]) using 2% starch solution as eliciting agent injected 2 day prior to cell harvest. Animal work was carried out according to the rules and regulations for the protection of animal rights (“Tierschutzverordnung”) of the Swiss “Bundesamt für Veterinärwesen” (License number 2374). Mouse peritoneal macrophages (4 × 10^4 in 100 µL RPMI 1640 medium with 10% heat-inactivated FBS) were seeded into wells of a 96-well plate. After 24 h, 2 × 10^5 amastigote L. donovani in 100 µL were added. The amastigotes were taken from an axenic amastigote culture grown at pH 5.4. The medium containing free amastigote forms was removed after 24 h and replaced with fresh medium. The washing step was repeated and afterward the serial drug dilution was prepared with at least 6 dilution steps. Compounds were dissolved in DMSO at 10 mg/ml and further diluted in medium. After 96 h of incubation at 37°C under a 5% CO2 atmosphere, the medium was removed, and cells were fixed by adding 50 µl 4% formaldehyde solution followed by a staining with a 5 µM DRAQ5 solution. Plates were imaged in ImageXpress XLS (MD) microscope using a 20× air objective (635 nm excitation: 690/50 emission). 9 images were collected per well. Automated image analysis was performed with a script developed on Meta Xpress Software (MD). Three outputs were provided for each well: i) number of host cell nuclei; ii) numbers of infected and non-infected host cells; iii) number of parasite nuclei per infected host cell. The IC50 values were calculated based on the infection rate and the numbers of intracellular amastigotes. The cytotoxicity to macrophages was determined in parallel, and IC50 values were calculated based on the numbers of surviving, uninfected macrophages. Miltefosine was used as control. Assays were performed in two independent replicates at least.

Series [5] is described as follows: Cytotoxicity to macrophages determined in parallel to the intramacrophage assay. Particulars: CDI, surviving, uninfected mouse peritoneal macrophages. The procedure:
as §1

The mark [6] stands for this setting: NF54 drug sensitive strain, erythrocytic stages, 72 h, mean ± absolute deviation.
Where [7] appears, read: Leishmania donovani, pH 5.4, axenic amastigotes.
The mark [8] stands for this setting: Leishmania donovani, Peritoneal macrophage.
The mark [9] stands for this setting: Plasmodium falciparum, NF54, 72 h, NF54 drug sensitive strain, erythrocytic stages, 72 h, mean ± absolute deviation.

Values joined by “and” are separate entries in the source; they are usually repeats but may differ in a detail not shown here. Equal values may be shown once. Read-outs that look alike come from different tables or passages of the source.

As to “(+)-(7S,7′S,8R,8′R)-Pinoresinol [Compound 10]”, the “Selectivity index (SI): IC50 in L6 cells divided by IC50 in L. donovani axenic amastigotes” value in series [1] is 1.6. Further, the IC50 in series [1] (axenic amastigotes) is > 150 µM and 151 µM; in series [2], 116.8 ± 0.3 µM; in series [3] (setting [6]), over 140 µM; in series [4], over 279 µM. In addition, the “Selectivity index (SI): IC50 in L6 cells divided by IC50 in T. b. rhodesiense” value in series [2] is on record as 2.1. For the same compound, the “IC50 P. falciparum” value in series [3] (setting [6]) was “least active”.
Regarding `CCCCCCCCCCCCCCCCOP(=O)([O-])OCC[N+](C)(C)C` [Miltefosine, reference compound], the IC50 in series [1] (setting [7]) was determined as 0.5 ± 0.2 µM; in series [4] (setting [8]) it was 6.6 ± 0.3 µM. Also, in series [5], the IC50 at 96 h was over 24.1 µM.
For the compound `CC(=O)O[C@H]1[C@H]2c3c(ccc4c(=O)cc(-c5ccccc5)oc34)O[C@H]2OC1(C)C` [Compound 12, (-)-(3′′S,4′′R,5′′S)-Pseudosemiglabrin], the “Selectivity index (SI): IC50 in L6 cells divided by IC50 in L. donovani axenic amastigotes” value in series [1] is on record as 4.1. In addition, the half-maximal inhibitory concentration (IC50) in series [1] (setting [7]) is 18.9 ± 2.6 µM; in series [2] (Trypanosoma brucei, 70 h), 37.5 ± 6.1 µM; in series [3] (setting [6]) it was 16.3 ± 2.7 µM; in series [3] (setting [9]) it was about 20 µM; in series [4] (setting [8]) it was over 84.2 µM. In series [5], this compound came in with a half-maximal inhibitory concentration (IC50) at 96 h of 145 ± 10.5 µM. Besides, in series [2], the “Selectivity index (SI): IC50 in L6 cells divided by IC50 in T. b. rhodesiense” value was determined as 2.1. For the same compound, the “Selectivity index (SI): IC50 in L6 cells divided by IC50 in P. falciparum” value in series [3] is 4.8.
As for `O=c1c(O)c(-c2ccc(O)cc2)oc2cc(O)cc(O)c12` [Compound 13, Kaempferol], the “Selectivity index (SI): IC50 in L6 cells divided by IC50 in L. donovani axenic amastigotes” value in series [1] is 5.3. For the same compound, the IC50 in series [1] (setting [7]) is 20.8 ± 1.7 µM; in series [2] (Trypanosoma brucei, 70 h), 36.4 ± 8.7 µM; in series [3] (setting [9]), 53.1 ± 7.7 µM; in series [4] (setting [8]), over 115 µM. Moreover, in series [5], the IC50 at 96 h is 151 ± 18.8 µM. The “Selectivity index (SI): IC50 in L6 cells divided by IC50 in T. b. rhodesiense” value in series [2] was found to be 3.1. Also, the “Selectivity index (SI): IC50 in L6 cells divided by IC50 in P. falciparum” value in series [3] was found to be 2.1.
On to `COc1ccc(-c2oc3cc(O)cc(O)c3c(=O)c2OC)cc1OC` [Compound 1, Quercetin-3,3′,4′-trimethylether], for which the “Selectivity index (SI): IC50 in L6 cells divided by IC50 in L. donovani axenic amastigotes” value in series [1] is on record as 9.8. The IC50 in series [1] (setting [7]) is 15 to 22 µM; in series [2] (Trypanosoma brucei, 70 h), 55.1 ± 13.2 µM; in series [3] (setting [9]), 42.1 ± 12.5 µM; in series [4] (setting [8]), over 79.9 µM. In addition, the IC50 at 96 h in series [5] stood at 154 ± 19.3 µM. The “Selectivity index (SI): IC50 in L6 cells divided by IC50 in T. b. rhodesiense” value in series [2] turned out to be 3.4. The “Selectivity index (SI): IC50 in L6 cells divided by IC50 in P. falciparum” value in series [3] is listed as 4.4.
Take `CCN(CC)CCCC(C)Nc1ccnc2cc(Cl)ccc12` (stereo not drawn) [Chloroquine, reference compound]: the half-inhibitory concentration (IC50) in series [3] (Plasmodium falciparum, NF54, 72 h) stood at 0.01 ± 0.002 µM.
`COc1cc(O)c2c(=O)c(OC)c(-c3ccc(O)c(O)c3)oc2c1` [Compound 6, Quercetin-3,7-dimethylether]: in series [1], the “Selectivity index (SI): IC50 in L6 cells divided by IC50 in L. donovani axenic amastigotes” value amounted to 12.3. In addition, the concentration for half-maximal inhibition (IC50) is 4.5 ± 0.3 µM in series [1] (setting [7]); 2.4 ± 0.5 µM in series [2] (Trypanosoma brucei, 70 h); 7.3 ± 0.6 µM in series [3] (setting [6]); 7 to 8 µM in series [3] (setting [9]); over 66.7 µM in series [4] (setting [8]). The compound further yielded an IC50 at 96 h in series [5] of 102 ± 49.7 µM. In series [2], the “Selectivity index (SI): IC50 in L6 cells divided by IC50 in T. b. rhodesiense” value is 23.2. For the same compound, in series [3], the “Selectivity index (SI): IC50 in L6 cells divided by IC50 in P. falciparum” value is reported as 7.6.
Turning to `COc1cc(O)c2c(=O)c(OC)c(-c3ccc(OC)c(O)c3)oc2c1` [Compound 2, Ayanin], the “Selectivity index (SI): IC50 in L6 cells divided by IC50 in L. donovani axenic amastigotes” value in series [1] is 12.2. Further, the half-maximal inhibitory concentration (IC50) in series [1] (setting [7]) was 8.2 ± 1.6 µM; in series [2] (Trypanosoma brucei, 70 h), 11.2 ± 0.2 µM; in series [3] (setting [6]) it was 7.8 ± 0.9 µM; in series [3] (setting [9]), 7 to 8 µM; in series [4] (setting [8]) it was over 95.9 µM. Also, inhibition in series [5] was half-maximal at 128 ± 3.5 µM (IC50 at 96 h). Moreover, the “Selectivity index (SI): IC50 in L6 cells divided by IC50 in T. b. rhodesiense” value in series [2] is 8.9. In addition, the “Selectivity index (SI): IC50 in L6 cells divided by IC50 in P. falciparum” value in series [3] amounted to 12.9.
